Reference: patent US5462954A, “Substituted phenyl phenol leukotriene antagonists” (Eli Lilly and Company, priority 1994, dated 1995)
Counter-ions that a name gives are not always drawn.

Biological target: binding of tritiated LTB4 to guinea pig lung membranes (Cavia porcellus, UniProt H0VYV8)
Assay: biochemical
Settings: read-out: pKi (mean -log Ki) (converted)
Experimental: The effectiveness of compounds of Formula I to inhibit the binding of tritiated LTB4 to guinea pig lung membranes was determined as follows.
The binding reaction was terminated by the addition of 1 mL ice cold wash buffer (25 mM Tris-HCl, pH 7.5) followed immediately by vacuum filtration over Whatman GF/C glass fiber filters using a Brandel (Gaithersburg, Md.) 48 place harvester. The filters were washed three times with 1 mL of wash buffer. Retained radioactivity was determined by liquid scintillation counting at 50% counting efficiency using Ready Protein Plus cocktail (Beckman, Fullerton, Calif.). Nondisplaceable binding was determined in the presence of 1 μM LTB4 and was usually less than 10% of total binding. […] The data reported below is the mean -log Ki, otherwise known as the pKi, for n experiments.

Sequence of binding of tritiated LTB4 to guinea pig lung membranes (H0VYV8 1-348): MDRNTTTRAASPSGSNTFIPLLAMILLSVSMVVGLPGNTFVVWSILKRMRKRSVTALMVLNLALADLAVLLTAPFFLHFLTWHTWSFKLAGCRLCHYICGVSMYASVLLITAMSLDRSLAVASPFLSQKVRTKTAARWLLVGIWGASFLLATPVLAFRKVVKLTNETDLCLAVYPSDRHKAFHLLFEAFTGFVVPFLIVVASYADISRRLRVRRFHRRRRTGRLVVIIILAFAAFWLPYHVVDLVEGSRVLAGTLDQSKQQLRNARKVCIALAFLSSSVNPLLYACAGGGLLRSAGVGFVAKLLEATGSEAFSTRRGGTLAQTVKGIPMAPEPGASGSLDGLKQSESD

SMILES | Ki [nM]
CCc1cc(-c2ccc(F)cc2)c(O)cc1OCCCOc1ccc(CCCCC(=O)O)c2c1CCC(=O)O2 [Example 33, 5-(3-(2-Ethyl-4-(4-fluorophenyl)-5-hydroxyphenoxy)propoxy)-8-(4-carboxybutyl)dihydrocoumarin] | 0.257
CCc1cc(-c2ccccc2)c(O)cc1OCCCOc1ccc2c(c1CCC(=O)O)CCC(CC(=O)O)C2=O (centres unmarked) [Example 50, 3-(5-(6-(4-Phenyl-5-hydroxy-2-ethylphenoxy)propoxy)-2-carboxymethyl-1,2,3,4-tetrahydronaphthalen-1(2H)-one)propanoic acid] | 0.851
CCc1cc(-c2ccc(F)cc2)c(O)cc1OCCCOc1ccc2c(c1CCC(=O)O)CCC(CC(=O)O)C2=O (centres unmarked) [Example 51, 3-(5-(6-(4-(4-Fluorophenyl)-5-hydroxy-2-ethylphenoxy)propoxy)-2-carboxymethyl-1,2,3,4-tetrahydronaphthalen-1(2H)-one)propanoic acid] | 0.219
CCc1cc(-c2ccc(F)cc2)c(O)cc1OCCCOc1ccc(C(=O)CC(C)(C)CC(=O)O)cc1CCC(=O)O [Example 53] | 1.55
CCCc1c(OCCCOc2cc(O)c(-c3ccccc3)cc2CC)ccc2c1OC(C(=O)O)CC2 (centres unmarked) [Example 54, 7-[3-[(5-Ethyl-2-hydroxy[1,1'-biphenyl]-4-yl)oxy]propoxy]-3,4-dihydro-8-propyl-2H-1-benzopyran-2-carboxylic acid] | 1.2
CCc1cc(-c2ccccc2)c(O)cc1OCCCOc1ccc2c(=O)c3cc(C(=O)O)ccc3oc2c1CCC(=O)O [Example 60, 7-Carboxy-9-oxo-3-[3-(2-ethyl-5-hydroxy-4-phenylphenoxy)propoxy]-9H-xanthene-4-propanoic acid disodium salt monohydrate] | 0.0646
CCc1cc(-c2ccccc2)c(O)cc1OCCCOc1cc(-c2ccccc2)ccc1CCC(=O)O [Example 62, 3-[3-(2-Ethyl-5-hydroxy-4-phenylphenoxy)propoxy][1,1'-biphenyl]-4-propanoicacid disodium salt monohydrate] | 57.5
CCc1cc(-c2ccccc2)c(O)cc1OCCCOc1ccc2c(=O)c3ccccc3oc2c1CCC(=O)O [Example 64, 3-[4-[3-[3-(2-Ethyl-5-hydroxy-4-phenylphenoxy)propoxy]-9-oxo-9H-xanthene]]propanoicacid sodium salt hemihydrate] | 14.1
CCc1cc(-c2ccc(F)cc2)c(O)cc1OCCCOc1ccc(NC(=O)CCCC(=O)N2CCOCC2)cc1CCC(=O)O [Example 69] | 12.9
CCCc1c(OCCCCCOc2cc(O)c(-c3ccc(F)cc3)cc2CC)cccc1Oc1ccccc1C(=O)O [Example 72, 2-[2-Propyl-3-[5-[2-ethyl-5-hydroxy-4-(4-fluorophenyl)phenoxy]pentoxy]phenoxy]benzoic acid] | 6.61
CCCc1c(OCCCCOc2cc(O)c(-c3ccc(F)cc3)cc2CC)cccc1Oc1ccccc1C(=O)O [Example 73, 2-[2-Propyl-3-[4-[2-ethyl-5-hydroxy-4-(4-fluorophenyl)phenoxy]butoxy]phenoxy]benzoic acid sesquihydrate] | 17.8
CCc1cc(-c2ccc(F)cc2)c(O)cc1OCCCOc1ccc(C#CCCC(=O)O)cc1CCC(=O)O [Example 83, 5-[3-[2-(1-Carboxy)ethyl]-4-[3-[2-ethyl-4-(4-fluorophenyl)-5-hydroxyphenoxy]propoxy]phenyl]-4-pentynoic acid disodium salt 0.4 hydrate] | 0.0661
CCc1cc(-c2ccc(F)cc2)c(O)cc1OCCCCCC(c1ccc(OCC(=O)O)cc1)c1nn[nH]n1 (centres unmarked) [Example 85, 1-(4-(Carboxymethoxy)phenyl)-1-(1H-tetrazol-5-yl)-6-(2-ethyl-4-(4-fluorophenyl)-5-hydroxyphenoxy)hexane] | 0.245
CCc1cc(-c2ccc(F)cc2)c(O)cc1OCCCOc1cc(OCCCCC(=O)O)ccc1CCC(=O)O [Example 90, 3-(2-(3-(2-Ethyl-4-(4-fluorophenyl)-5-hydroxyphenoxy)propoxy)-4-(4-carboxybutyloxy)phenyl)propionic acid] | 20.9
CCc1cc(-c2ccc(F)cc2)c(O)cc1OCCCOc1cccc2c1CCC(=O)O2 [Example 91, 5-[3-[4-(4-Fluorophenyl)-2-ethyl-5-hydroxyphenoxy]propoxy]-3,4-dihydro-2H-1-benzopyran-2-one] | 0.525

Results, then the compound that gave them:

Ki [nM] | SMILES
0.263 | CCc1cc(-c2ccc(F)cc2)c(O)cc1OCCCOc1ccc2c(c1CCC(=O)O)CC(CC(=O)O)C2=O (centres unmarked) [Example 52, 3-(4-(5-(4-(4-Fluorophenyl)-5-hydroxy-2-ethylphenoxy)propoxy)-2-carboxymethyl-2,3-dihydroinden-1(2H)-one)propanoic acid]
51.3 | CCc1cc(-c2ccccc2)c(O)cc1OCCCOc1ccc2oc3ccccc3c2c1CCC(=O)O [Example 59, 3-[2-[3-[(5-Ethyl-2-hydroxy[1,1'-biphenyl]-4-yl)oxy]propoxy]-1-dibenzofuran]propanoic acid disodium salt]
11.5 | CCCc1c(OCCCOc2cc(O)c(-c3ccccc3)cc2CC)cccc1Oc1ccccc1-c1nnn[nH]1 [Example 63, 5-Ethyl-4-[3-[2-propyl-3-[2-(2H-tetrazol-5-yl)phenoxy]phenoxy]propoxy][1,1'-biphenyl]-2-ol disodium salt sesquihydrate]
12.3 | CCCc1c(OCCCOc2cc(O)c(-c3ccccc3)cc2CC)cccc1Oc1cccc(F)c1C(=O)O [Example 65, 2-Fluoro-6-[2-propyl-3-[3-(2-ethyl-5-hydroxy-4-phenylphenoxy)propoxy]phenoxy]benzoic acid disodium salt]
0.024 | CCc1cc(-c2ccc(F)cc2)c(O)cc1OCCCOc1ccc2c(=O)c3cc(C(=O)O)ccc3oc2c1CCC(=O)O [Example 67, 3-[4-[7-Carboxy-9-oxo-3-[3-[2-ethyl-4-(4-fluorophenyl)-5-hydroxyphenoxy]propoxy]-9H-xanthene]] propanoic acid disodium salt trihydrate]
3.47 | CCc1cc(-c2ccc(F)cc2)c(O)cc1OCCCOc1ccc2c(=O)c3ccccc3oc2c1CCC(=O)O [Example 68, 3-[4-[9-Oxo-3-[3-[2-ethyl-4-(4-fluorophenyl)-5-hydroxyphenoxy]propoxy]-9H-xanthene]]propanoic acid]
8.13 | CCCc1c(OCCCOc2cc(O)c(-c3ccc(F)cc3)cc2CC)cccc1Oc1cccc(F)c1C(=O)O [Example 70, 2-Fluoro-6-[2-propyl-3-[3-[2-ethyl-5-hydroxy-4-(4-fluorophenyl)phenoxy]propoxy]phenoxy]benzoic acid disodium salt hydrate]
17 | CCCc1c(OCCCOc2cc(O)c(-c3ccc(F)cc3)cc2CC)cccc1Oc1cc(F)ccc1C(=O)O [Example 71, 4-Fluoro-2-[2-propyl-3-[3-[2-ethyl-5-hydroxy-4-(4-fluorophenyl)phenoxy]propoxy]phenoxy]benzoic acid]
13.8 | CCc1cc(-c2ccc(F)cc2)c(O)cc1OCCCOc1cccc(Oc2ccccc2C(=O)O)c1CC(C)C [Example 74, 2-[2-(2-Methylpropyl)-3-[3-[2-ethyl-5-hydroxy-4-(4-fluorophenyl)phenoxy]propoxy]phenoxy]benzoic acid]
16.2 | CCCCc1c(OCCCOc2cc(O)c(-c3ccc(F)cc3)cc2CC)cccc1Oc1ccccc1C(=O)O [Example 75, 2-[2-Butyl-3-[3-[2-ethyl-5-hydroxy-4-(4-fluorophenyl)phenoxy]propoxy]phenoxy]benzoic acid hydrate]
53.7 | CCc1cc(-c2ccc(F)cc2)c(O)cc1OCCCOc1cccc(Oc2ccccc2C(=O)O)c1Cc1ccccc1 [Example 76, 2-[2-(Phenylmethyl)-3-[3-[2-ethyl-5-hydroxy-4-(4-fluorophenyl)phenoxy]propoxy]phenoxy]benzoic acid]
8.13 | CCCc1c(OCCCOc2cc(O)c(-c3ccc(F)cc3)cc2CC)cccc1Oc1ccccc1CC(=O)O [Example 77, 2-[2-Propyl-3-[3-[2-ethyl-5-hydroxy-4-(4-fluorophenyl)phenoxy]propoxy]phenoxy]phenylacetic acid]
9.55 | CCCc1c(OCCCOc2cc(O)c(-c3ccc(F)cc3)cc2CC)cccc1C(=O)c1ccccc1C(=O)O [Example 78, 2-[2-Propyl-3-[3-[2-ethyl-5-hydroxy-4-(4-fluorophenyl)phenoxy]propoxy]benzoyl]benzoic acid]
10.5 | CCCc1c(Cc2ccccc2C(=O)O)cccc1OCCCOc1cc(O)c(-c2ccc(F)cc2)cc1CC [Example 79, 2-[[2-Propyl-3-[3-[2-ethyl-5-hydroxy-4-(4-fluorophenyl)phenoxy]propoxy]phenyl]methyl]benzoic acid]
11.2 | CCCc1c(OCCCOc2cc(O)c(-c3ccc(F)cc3)cc2CC)cccc1Sc1ccccc1C(=O)O [Example 80, 2-[2-Propyl-3-[3-[2-ethyl-4-(4-fluorophenyl)-5-hydroxyphenoxy]propoxy]thiophenoxy]benzoic acid]
1.35 | CCCc1c(OCCCOc2cc(O)c(-c3ccc(F)cc3)cc2CC)cccc1[S+]([O-])c1ccccc1C(=O)O (centres unmarked) [Example 81, 2-[2-Propyl-3-[3-[2-ethyl-4-(4-fluorophenyl)-5-hydroxyphenoxy]propoxy]phenylsulfinyl]benzoic acid]
10.2 | CCCc1c(OCCCOc2cc(O)c(-c3ccc(F)cc3)cc2CC)cccc1S(=O)(=O)c1ccccc1C(=O)O [Example 82, 2-[2-Propyl-3-[3-[2-ethyl-4-(4-fluorophenyl)-5-hydroxyphenoxy]propoxy]phenylsulfonyl]benzoic acid hydrate]
9.55 | CCc1cc(-c2ccc(F)cc2)c(O)cc1OCCCOc1ccccc1/C=C/C(=O)O [Example 87, 3-(2-(3-(2-Ethyl-4-(4-fluorophenyl)-5-hydroxyphenoxy)propoxy)phenyl)-E-propenoic acid]
5.01 | CCc1cc(-c2ccc(F)cc2)c(O)cc1OCCCOc1ccccc1/C=C(\C)C(=O)O [Example 88, 3-(2-(3-(2-Ethyl-4-(4-fluorophenyl)-5-hydroxyphenoxy)propoxy)phenyl)-2-methyl-E-propenoic acid]
14.1 | CCc1cc(-c2ccc(F)cc2)c(O)cc1OCCCOc1ccccc1CCc1nnn[nH]1 [Example 89, 5-(2-(2-(3-(2-Ethyl-4-(4-fluorophenyl)-5-hydroxyphenoxy)propoxy)phenyl)ethyl)-1H-tetrazole]
